Consider eleven compounds from ChEMBL document CHEMBL1201862, “PubChem BioAssay data set” (2004).

Structures are written as SMILES.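 The compound was tested at five concentrations on cells cultured in 96-well plates, with a 48-hour exposure period. At the GI50, growth is halved.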 Calls of active or inactive are those of the source. Rule as the data show it: active = GI50 up to about 1.1 µM and inactive = higher. Where only a bound is given, the exact number is not on record here.

Some test systems named below: UACC-257; TK-10; SK-MEL-2; IGROV-1; SF-295; K562; HCC 2998; SF-268; SNB-19; NCI-H460; MOLT-4; 786-0; NCI-H23; OVCAR-3; SK-MEL-5; NCI/ADR-RES; SK-MEL-28; SN12C; HL-60; SNB-75.
Assay in all cases: growth of human tumour cells (NCI), 48 h

Take `O=C(O)c1nn(-c2ccccc2)nc1-c1nn(-c2ccccc2)nc1C(=O)O`: the GI50 in the assay on UACC-257, with TK-10, in the assay on SK-MEL-2, in the assay on IGROV-1, with SF-295 and in the assay with K562 was > 100 µM (inactive) in each case. For the same compound, the GI50 with HCC 2998, in the assay on SF-268, in the assay on SNB-19, with NCI-H460, with MOLT-4 and with 786-0 was > 100 µM (inactive) in each case. Moreover, the GI50 with NCI-H23, in the assay on OVCAR-3, in the assay on SK-MEL-5, in the assay on NCI/ADR-RES, with SK-MEL-28 and in the assay on SN12C was > 100 µM (inactive) throughout. Also, in the assay with HL-60, the GI50 is > 100 µM (inactive).

In the case of `COC(=O)c1ccc(S)c(S(=O)(=O)Nc2nc(N)n[nH]2)c1`, the GI50 in the assay with UACC-257, in the assay with TK-10, with SK-MEL-2, in the assay with IGROV-1, in the assay on SF-295 and in the assay with K562 was > 100 µM (inactive) in each case. For the same compound, the GI50 with SNB-19, with NCI-H460, with MOLT-4, with 786-0, in the assay with NCI-H23 and in the assay on OVCAR-3 was > 100 µM (inactive) in each case. Further, the GI50 with SK-MEL-5, in the assay on NCI/ADR-RES, in the assay on SK-MEL-28, in the assay on SN12C and with HL-60 was > 100 µM (inactive) each time.

In the case of `Brc1sc(Br)c2c1[C@H](Br)C[C@@H]2Br`, the GI50 with UACC-257 was 40.2 µM (inactive); with TK-10, > 100 µM (inactive); in the assay with SK-MEL-2 it was 24.6 µM (inactive); in the assay on IGROV-1, 26.9 µM (inactive); in the assay with SF-295, > 10 µM (inactive); in the assay on K562 it was 39.4 µM (inactive). In addition, the GI50 in the assay on SF-268 was 20.7 µM (inactive); in the assay with NCI-H460, 27.5 µM (inactive); in the assay with SNB-75, 30.1 µM (inactive); in the assay with MOLT-4, 8.97 µM (inactive); with 786-0, 29.9 µM (inactive); in the assay with NCI-H23, 24.3 µM (inactive). The GI50 in the assay on OVCAR-3 is 41.9 µM (inactive); in the assay on SK-MEL-5 it was 57.1 µM (inactive); in the assay on NCI/ADR-RES, 23 µM (inactive); in the assay on SK-MEL-28, 28 µM (inactive); with SN12C, 31.1 µM (inactive); in the assay on HL-60, 30.7 µM (inactive).

Turning to `CC(=O)c1cc(I)c(O)c2ncccc12`, the GI50 with UACC-257 was 2.66 µM (inactive); in the assay with TK-10, 9.46 µM (inactive); in the assay on SK-MEL-2, 6.35 µM (inactive); in the assay with IGROV-1 it was 2.94 µM (inactive); in the assay with SF-295 it was 4.07 µM (inactive); in the assay with K562, 7.55 µM (inactive). Further, the GI50 with HCC 2998 was 8.17 µM (inactive); in the assay with SF-268 it was 3.22 µM (inactive); in the assay with SNB-19, 5.47 µM (inactive); in the assay with NCI-H460, 4.06 µM (inactive); in the assay on MOLT-4 it was 2.42 µM (inactive); in the assay with 786-0 it was 3.03 µM (inactive). Also, the GI50 in the assay on NCI-H23 was 3.13 µM (inactive); with OVCAR-3, 3.21 µM (inactive); in the assay on SK-MEL-5, 2.29 µM (inactive); with NCI/ADR-RES it was 4.35 µM (inactive); in the assay on SK-MEL-28 it was 4.09 µM (inactive); with SN12C, 3.69 µM (inactive). In addition, the GI50 in the assay with HL-60 was 2.03 µM (inactive).

In the case of `Cc1ccc(S(=O)(=O)N/N=C2/C3CCC(C3)C2c2ccccc2)cc1` (stereo not drawn), the GI50 in the assay with UACC-257, in the assay with TK-10, in the assay on SK-MEL-2, with IGROV-1, in the assay with SF-295 and with K562 was > 100 µM (inactive) throughout. The GI50 with SF-268, in the assay on SNB-19, in the assay on NCI-H460, with SNB-75, in the assay with MOLT-4 and in the assay with 786-0 was > 100 µM (inactive) in each case. Further, the GI50 in the assay with NCI-H23, in the assay on OVCAR-3, in the assay on SK-MEL-5, with NCI/ADR-RES, in the assay on SK-MEL-28 and in the assay on SN12C was > 100 µM (inactive) each time. Besides, in the assay with HL-60, the GI50 is > 100 µM (inactive).

Take `O=C(NCCNCCCNC(=O)c1cc(-c2ccccc2)nc2ccccc12)c1cccc(OCc2ccccc2)c1OCc1ccccc1`: the GI50 in the assay with UACC-257 is 1.83 µM (inactive); in the assay with TK-10 it was 1.77 µM (inactive); with IGROV-1, 1.85 µM (inactive); with SF-295, 1.64 µM (inactive); with K562, 1.74 µM (inactive); with HCC 2998 it was 1.26 µM (inactive). Further, the GI50 in the assay on SF-268 is 1.88 µM (inactive); with SNB-19 it was 1.78 µM (inactive); with NCI-H460, 2.13 µM (inactive); in the assay on SNB-75, 1.87 µM (inactive); in the assay with MOLT-4, 1.85 µM (inactive); in the assay with 786-0, 1.71 µM (inactive). Also, the GI50 with NCI-H23 is 1.83 µM (inactive); in the assay on OVCAR-3, 1.95 µM (inactive); in the assay on SK-MEL-5, 1.71 µM (inactive); in the assay with NCI/ADR-RES, 1.87 µM (inactive); in the assay on SK-MEL-28, 1.81 µM (inactive); in the assay on SN12C, 1.77 µM (inactive). Besides, the GI50 in the assay with HL-60 was 1.6 µM (inactive).

Consider `Cc1cc(-n2c(/C=C/c3ccc(Cl)cc3)nc3cc(Cl)ccc3c2=O)on1`, for which the GI50 is > 50 µM (inactive) in the assay on UACC-257; 12.2 µM (inactive) in the assay on TK-10; 29.6 µM (inactive) with IGROV-1; 22 µM (inactive) in the assay on SF-295; > 50 µM (inactive) in the assay on K562; > 50 µM (inactive) in the assay on HCC 2998. In addition, the GI50 in the assay on SF-268 is 15.7 µM (inactive); in the assay with SNB-19 it was 9.86 µM (inactive); with NCI-H460, 5.12 µM (inactive); in the assay on MOLT-4, > 50 µM (inactive); with 786-0, 1.47 µM (inactive); with NCI-H23, 41.4 µM (inactive). In addition, the GI50 in the assay on OVCAR-3 is 10.1 µM (inactive); in the assay on SK-MEL-5 it was 16.4 µM (inactive); with NCI/ADR-RES, 14.4 µM (inactive); in the assay with SK-MEL-28 it was > 50 µM (inactive); in the assay on SN12C, 20.5 µM (inactive); in the assay on HL-60, > 50 µM (inactive).

As for `CC(=O)NC(C)(C)C1CC=C(C)CC1` (stereo not drawn), the GI50 in the assay with UACC-257, in the assay on TK-10, with IGROV-1, in the assay on SF-295, with K562 and in the assay with HCC 2998 was > 100 µM (inactive) throughout. Further, the GI50 in the assay with SF-268, in the assay on SNB-19, in the assay with NCI-H460, in the assay with SNB-75, in the assay on MOLT-4 and with 786-0 was > 100 µM (inactive) throughout. Besides, the GI50 in the assay on NCI-H23, in the assay on OVCAR-3, in the assay on SK-MEL-5, in the assay on NCI/ADR-RES, in the assay on SK-MEL-28 and with SN12C was > 100 µM (inactive) each time. Further, the GI50 in the assay with HL-60 is > 100 µM (inactive).

As to `Cc1cc(NC2=NCCO2)c2c(c1C)CCCC2`, the GI50 in the assay on UACC-257 was 9.33 µM (inactive); in the assay with TK-10, 33.7 µM (inactive); in the assay with IGROV-1, 21.8 µM (inactive); with SF-295 it was 12.6 µM (inactive); with HCC 2998, 15.2 µM (inactive); in the assay with SF-268 it was 18.9 µM (inactive). Further, the GI50 is 11.2 µM (inactive) in the assay on SNB-19; 11.7 µM (inactive) in the assay on NCI-H460; 19.2 µM (inactive) in the assay with SNB-75; 17.4 µM (inactive) in the assay on MOLT-4; 17.2 µM (inactive) in the assay with 786-0; 18 µM (inactive) in the assay on NCI-H23. For the same compound, the GI50 in the assay on SK-MEL-5 was 15.7 µM (inactive); in the assay on NCI/ADR-RES, 18.1 µM (inactive); in the assay on SK-MEL-28 it was 15.4 µM (inactive); with SN12C it was 22.2 µM (inactive); with HL-60 it was 10.6 µM (inactive).

On to `[N-]=[N+]=NCc1nc(N)c2c3c(sc2n1)CCCC3`, for which the GI50 with UACC-257 is 4.22 µM (inactive); in the assay with TK-10 it was 12.4 µM (inactive); in the assay with SK-MEL-2 it was 9.38 µM (inactive); with IGROV-1, 1.2 µM (inactive); in the assay with SF-295, 7.38 µM (inactive); with K562, 4.22 µM (inactive). Also, the GI50 in the assay with HCC 2998 is 1.84 µM (inactive); in the assay with SF-268, 2.32 µM (inactive); with SNB-19 it was 4.97 µM (inactive); with NCI-H460, 3.43 µM (inactive); in the assay on SNB-75 it was 7.69 µM (inactive); with MOLT-4 it was 3.29 µM (inactive). Besides, the GI50 was 0.455 µM (active) in the assay with 786-0; 1.3 µM (inactive) with NCI-H23; 2.75 µM (inactive) in the assay on OVCAR-3; 1.36 µM (inactive) with SK-MEL-5; 1.99 µM (inactive) in the assay with NCI/ADR-RES; 7.16 µM (inactive) in the assay with SK-MEL-28. Moreover, in the assay with SN12C, the GI50 is 2.74 µM (inactive).

With `CCCCN=C(OC1C=CCCC1)SC` (stereo not drawn), the GI50 in the assay on UACC-257, in the assay with TK-10, in the assay on IGROV-1, in the assay with SF-295, in the assay on K562 and in the assay on HCC 2998 was > 100 µM (inactive) throughout. In addition, the GI50 with SF-268 was > 100 µM (inactive); with SNB-19 it was > 100 µM (inactive); in the assay with NCI-H460 it was > 10 µM (inactive); in the assay with SNB-75, 51.9 µM (inactive); with MOLT-4, > 100 µM (inactive); with 786-0, > 100 µM (inactive). Besides, the GI50 in the assay on NCI-H23, with OVCAR-3, in the assay with SK-MEL-5, in the assay on NCI/ADR-RES, in the assay with SK-MEL-28 and with SN12C was > 100 µM (inactive) throughout. In the assay on HL-60, the GI50 was > 100 µM (inactive).
